Reference: US5084082A, “Soybean plants with dominant selectable trait for herbicide resistance” (priority 1990, dated 1992)

Columns and labels:
Type in all cases: in vivo, soybean
mutant W20 = experiment: Postemergence herbicide spray test of W4-4 (Table VII-A); conditions: two weeks after treatment
Description: (§1) To investigate this hypothesis, a postemergence herbicide spray test was conducted to compare the reaction of W4-4 to both W20 and wild-type Williams. The applicant was particularly interested in the resistance of W4-4 to herbicide treatments that were injurious to both Williams and W20 in a previous test (Table VII). […] Twenty-four plants each of W4-4, W20, and Williams were planted in separate 10 cm pots and allowed to grow to the second trifoliolate stage. Each pot constituted a single experimental unit receiving a single herbicide treatment. Herbicide treatments (Table VIIA) were applied as described for the first postemergence test and were replicated twice. Control plants were sprayed with the spray carrier solution only (water with 0.25% X77 surfactant). At two weeks after treatment, each plant was rated for % herbicide injury as described in Table VIII. Analysis of variance on injury ratings was performed separately for each herbicide to calculate treatment means and standard errors. Fisher's least significant difference (LSD) was used to determine the significance of line means differences at each herbicide rate using the 95% level of confidence. […]

Williams 82 [1] = experiment: as above; conditions: two weeks after treatment
Description: as §1

Mutant W4-4 = experiment: as above; conditions: two weeks after treatment
Description: as §1

mutant line W20 = experiment: Test B postemergence cross resistance test; conditions: Glycine max, post-emergence; for percent crop injury at 16 g/ha: W20, 16 g/ha postemergence; for percent crop injury at 64 g/ha: W20, 64 g/ha postemergence
Excerpt: (§2) In the second postemergence test, six true-breeding resistant mutant lines (W4, W17, W19, W20, W23, and W28) were compared to Williams 82 for cross resistance to a broad range of ALS inhibitors including eight sulfonylureas and three imidazolinones. Two seeds were planted in each 10 cm pot and allowed to grow to the second trifoliolate stage. Pots were not thinned back if both plants were at the proper stage. For each of 11 herbicides, two rates (Table VII) were selected based on previous data: the low rate was expected to cause significant injury (but not death) to Williams 82 and the high rate was expected to severely injure or kill Williams 82. All but a few line x rate treatments were replicated twice.
In both postemergence tests, plants were returned to the greenhouse after treatment and provided with ample light, moisture, and nutrients to support healthy plant growth. Two to three ratings per pot were recorded over a three-week period and averaged to obtain a single value for each pot For each herbicide, analysis of variance on injury ratings was performed separately. Fisher's least significant difference (LSD) was used to determine the significance of line mean differences at each herbicide rate using the 95% level of confidence.

mutant line W17 = experiment: Test B postemergence cross resistance test; conditions: Glycine max, post-emergence; for soybean crop injury (%) at 16 g/ha: W17, 16 g/ha postemergence; for soybean crop injury (%) at 64 g/ha: W17, 64 g/ha postemergence
Excerpt: as §2
(§3) In both postemergence tests, plants were returned to the greenhouse after treatment and provided with ample light, moisture, and nutrients to support healthy plant growth. Two to three ratings per pot were recorded over a three-week period and averaged to obtain a single value for each pot For each herbicide, analysis of variance on injury ratings was performed separately. Fisher's least significant difference (LSD) was used to determine the significance of line mean differences at each herbicide rate using the 95% level of confidence. […]

Williams 82 [2] = experiment: Test B postemergence cross resistance test; conditions: Glycine max, post-emergence, read-out: mean % injury
Excerpt: as §2, §3

mutant line W19 = experiment: Test B postemergence cross resistance test; conditions: Glycine max, post-emergence; for percent soybean crop injury at 16 g/ha: W19, 16 g/ha postemergence; for percent soybean crop injury at 64 g/ha: W19, 64 g/ha postemergence
Excerpt: as §2, §3

mutant line W28 = experiment: Test B postemergence cross resistance test; conditions: Glycine max, post-emergence; for mean % injury to soybean at 16 g/ha: W28, 16 g/ha postemergence; for mean % injury to soybean at 64 g/ha: W28, 64 g/ha postemergence
Excerpt: as §2, §3

mutant line W4 = experiment: Test B postemergence cross resistance test; conditions: Glycine max, post-emergence; for % crop injury at 16 g/ha: W4, 16 g/ha postemergence; for % crop injury at 64 g/ha: W4, 64 g/ha postemergence
Excerpt: as §2, §3

mutant line W23 = experiment: Test B postemergence cross resistance test; conditions: Glycine max, post-emergence; for percent soybean injury at 16 g/ha: W23, 16 g/ha postemergence; for percent soybean injury at 64 g/ha: W23, 64 g/ha postemergence
Excerpt: as §2, §3

Williams 82 [3] = experiment: Test C preemergence (soil) sulfonylurea application; conditions: 19 days after treatment
Excerpt: (§4) W20, a line homozygous for a dominant sulfonylurea-resistance mutation, was compared to Williams 82 in terms of response to preemergence application of three sulfonylurea herbicides. The experimental unit consisted of a single 18 cm pot filled with soil (Sassafras loamy sand with 0.8% organic matter and pH 6.7) in which 6 seeds of a given soybean line were planted 2 cm deep. After planting, each pot was sprayed (using a conveyor belt spray apparatus to emulate field application) with one of 22 different treatments including a check sprayed with AGWT (90% acetone, 4% glycerol, 4% water, 2% Tween-20), and 21 different herbicide treatments using AGWT as a carrier. The herbicide treatments included 7 different concentrations (Table IX) each of three sulfonyl-ureas: Compound 5, Compound 4, and Compound 1. Each herbicide x line treatment was replicated three times. After herbicide treatment, pots were transferred to a greenhouse and arranged in a randomized complete block design. Nineteen days after treatment, each pot was rated visually for herbicide injury using the scale described previously. For each herbicide, analysis of variance on injury ratings was performed separately. Fisher's least significant difference (LSD) was used to determine the significance of line mean differences at each rate using the 95% level of confidence.

W20 = experiment: as above; conditions: 19 days after treatment
Excerpt: as §4

SMILES: COc1cc(OC)nc(NC(=O)NS(=O)(=O)c2ncccc2C(=O)N(C)C)n1 [Compound 6, 2-[[[[(4,6-dimethoxy-2-pyrimidinyl)amino]carbonyl]amino]sulfonyl]N,N-dimethyl-3-pyridinecarboxamide]
- mean % injury (mutant W20; W20, 64 g/ha postemergence): 10%
- mean % injury (mutant W20; W20, 125 g/ha postemergence): 28%
- mean % injury (Williams 82 [1]; WM82, 64 g/ha postemergence): 60%
- mean % injury (Williams 82 [1]; WM82, 125 g/ha postemergence): 68%
- mean % injury (Mutant W4-4; W4-4, 64 g/ha postemergence): 0%
- mean % injury (Mutant W4-4; W4-4, 125 g/ha postemergence): 8%
- percent crop injury at 16 g/ha (mutant line W20): 3%
- percent crop injury at 64 g/ha (mutant line W20): 38%
- soybean crop injury (%) at 16 g/ha (mutant line W17): 0%
- soybean crop injury (%) at 64 g/ha (mutant line W17): 40%
- pest or weed control at 16 g/ha (Williams 82 [2]): 25%
- pest or weed control at 64 g/ha (Williams 82 [2]): 66%
- percent soybean crop injury at 16 g/ha (mutant line W19): 8%
- percent soybean crop injury at 64 g/ha (mutant line W19): 48%
- mean % injury to soybean at 16 g/ha (mutant line W28): 0%
- mean % injury to soybean at 64 g/ha (mutant line W28): 45%
- % crop injury at 16 g/ha (mutant line W4): 4%
- % crop injury at 64 g/ha (mutant line W4): 43%
- percent soybean injury at 16 g/ha (mutant line W23): 5%
- percent soybean injury at 64 g/ha (mutant line W23): 54%

SMILES: CCOC(=O)c1ccccc1S(=O)(=O)NC(=O)Nc1nc(Cl)cc(OC)n1 [Compound 5, Ethyl 2[[[[(4-chloro-6-methoxy-2-pyrimidinyl)amino]carbonyl]amino]sulfonyl]benzoate]
- percent crop injury at 16 g/ha (mutant line W20): 0%
- percent crop injury at 64 g/ha (mutant line W20): 0%
- soybean crop injury (%) at 16 g/ha (mutant line W17): 0%
- soybean crop injury (%) at 64 g/ha (mutant line W17): 0%
- pest or weed control at 16 g/ha (Williams 82 [2]): 40%
- pest or weed control at 64 g/ha (Williams 82 [2]): 58%
- percent soybean crop injury at 16 g/ha (mutant line W19): 0%
- percent soybean crop injury at 64 g/ha (mutant line W19): 20%
- mean % injury to soybean at 16 g/ha (mutant line W28): 0%
- mean % injury to soybean at 64 g/ha (mutant line W28): 0%
- % crop injury at 16 g/ha (mutant line W4): 6%
- % crop injury at 64 g/ha (mutant line W4): 0%
- percent soybean injury at 16 g/ha (mutant line W23): 0%
- percent soybean injury at 64 g/ha (mutant line W23): 10%
- % Injury (Williams 82 [3]; WM 82, 1 g/ha preemergence): 0%
- % Injury (Williams 82 [3]; WM 82, 3 g/ha preemergence): 0%
- % Injury (Williams 82 [3]; WM 82, 10 g/ha preemergence): 0%
- % Injury (Williams 82 [3]; WM 82, 30 g/ha preemergence): 15%
- % Injury (Williams 82 [3]; WM 82, 100 g/ha preemergence): 47%
- % Injury (Williams 82 [3]; WM 82, 300 g/ha preemergence): 68%
- % Injury (Williams 82 [3]; WM 82, 1000 g/ha preemergence): 92%
- % Injury (W20; W20, 1 g/ha preemergence): 0%
- % Injury (W20; W20, 3 g/ha preemergence): 0%
- % Injury (W20; W20, 10 g/ha preemergence): 0%
- % Injury (W20; W20, 30 g/ha preemergence): 3%
- % Injury (W20; W20, 100 g/ha preemergence): 10%
- % Injury (W20; W20, 300 g/ha preemergence): 15%
- % Injury (W20; W20, 1000 g/ha preemergence): 35%

SMILES: COC(=O)c1ccccc1S(=O)(=O)NC(=O)Nc1nc(C)cc(C)n1 [Compound 4, Methyl 2-[[[[(4,6-dimethyl-2-pyrimidinyl)amino]carbonyl]amino]sulfonyl]benzoate]
- percent crop injury at 0.5 g/ha (mutant line W20; W20, 0.5 g/ha postemergence): 0%
- percent crop injury at 2 g/ha (mutant line W20; W20, 2 g/ha postemergence): 6%
- soybean crop injury (%) at 0.5 g/ha (mutant line W17; W17, 0.5 g/ha postemergence): 3%
- soybean crop injury (%) at 2 g/ha (mutant line W17; W17, 2 g/ha postemergence): 0%
- pest or weed control at 0.5 g/ha (Williams 82 [2]): 58%
- pest or weed control at 2 g/ha (Williams 82 [2]): 95%
- percent soybean crop injury at 0.5 g/ha (mutant line W19; W19, 0.5 g/ha postemergence): 3%
- percent soybean crop injury at 2 g/ha (mutant line W19; W19, 2 g/ha postemergence): 18%
- mean % injury to soybean at 0.5 g/ha (mutant line W28; W28, 0.5 g/ha postemergence): 0%
- mean % injury to soybean at 2 g/ha (mutant line W28; W28, 2 g/ha postemergence): 18%
- % crop injury at 0.5 g/ha (mutant line W4; W4, 0.5 g/ha postemergence): 10%
- % crop injury at 2 g/ha (mutant line W4; W4, 2 g/ha postemergence): 8%
- percent soybean injury at 0.5 g/ha (mutant line W23; W23, 0.5 g/ha postemergence): 8%
- percent soybean injury at 2 g/ha (mutant line W23; W23, 2 g/ha postemergence): 11%
- % Injury (Williams 82 [3]; WM 82, 0.3 g/ha preemergence): 33%
- % Injury (Williams 82 [3]; WM 82, 1 g/ha preemergence): 55%
- % Injury (Williams 82 [3]; WM 82, 3 g/ha preemergence): 88%
- % Injury (Williams 82 [3]; WM 82, 10 g/ha preemergence): 97%
- % Injury (Williams 82 [3]; WM 82, 30 g/ha preemergence): 98%
- % Injury (Williams 82 [3]; WM 82, 100 g/ha preemergence): 100%
- % Injury (Williams 82 [3]; WM 82, 300 g/ha preemergence): 100%
- % Injury (W20; W20, 0.3 g/ha preemergence): 0%
- % Injury (W20; W20, 1 g/ha preemergence): 0%
- % Injury (W20; W20, 3 g/ha preemergence): 0%
- % Injury (W20; W20, 10 g/ha preemergence): 17%
- % Injury (W20; W20, 30 g/ha preemergence): 68%
- % Injury (W20; W20, 100 g/ha preemergence): 90%
- % Injury (W20; W20, 300 g/ha preemergence): 95%
